In one assay the test system is schizophrenia subjects. In words: Sensory electrophysiological responses (P50 gating, MMN, P300, N100) in schizophrenia subjects. The format is in vivo, human. To be noted: in combination with a tobacco-free nicotine dosage form, greater than compound alone, expected at a daily dose as low as 0.3 mg. As to the method: These effects are expected at a daily dose as low as 0.3 mg of (R)-7-chloro-N-(quinuclidin-3-yl)benzo[b]thiophene-2-carboxamide hydrochloride.
Impairment of the ability of central nervous system to inhibit irrelevant sensory information has long been used as a model for understanding the deficits of attention seen in schizophrenic subjects. Two approaches to the measurement of this ability have commonly been employed (see (Heinrichs, 2004; Potter et al., 2006; Turetsky et al., 2007; Umbricht and Krljes, 2005) for reviews and meta-analyses): (1) the sensory gating paradigm in which the presentation of one stimulus normally suppresses the response elicited by a stimulus which rapidly follows it. […] (2) the oddball or orienting paradigm in which a rare or unexpected event elicits a diminished response in schizophrenic subjects because attentional resources are inappropriately focused on less salient aspects of the environment.
Two responses are commonly used assess brain activity: (1) the auditory P50 response elicited by the second member of a pair of clicks; and (2) the mismatch negativity (MMN) or N2 response evoked by a rarely occurring pure tone of no instructed relevance to the subject. Abnormalities in both P50 gating and the MMN have been reported in schizophrenic subjects. […]

Assay [1] in a line: Memory improvement at a subclinical dose in combination with an acetylcholinesterase inhibitor. The conditions noted are these: in combination with an acetylcholinesterase inhibitor also at a subclinical dose. The format is in vivo. As for the experimental part:
Thus, a subject can experience a benefit (e.g., improved memory or cognition) from a combination of drugs each of which is administered at very low, side-effect reducing or side-effect avoiding dose. Moreover, the combination of drugs may provide a benefit for a wider range or subjects and/or over a longer period of treatment.

A further assay concerns humans. In words: Procognitive effects in humans at low doses. The format is in vivo, human. The conditions noted are these: unexpectedly low doses. The source says: Thus, (R)-7-chloro-N-(quinuclidin-3-yl)benzo[b]thiophene-2-carboxamide and pharmaceutically acceptable salts thereof can be used at unexpectedly low doses improve cognition in individuals suffering from impaired cognition and in healthy individuals (i.e., individuals that are not suffering from an apparent cognitive deficit). For example, it can be used to improve cognition in subjects suffering from Alzheimer's disease, schizophrenia and other disorders such as other neurodegenerative diseases (e.g., Huntington's Disease or Parkinson's Disease) and attention deficit disorder. It can be used to treat certain disorders, e.g., Alzheimer's disease, schizophrenia (e.g., paranoid type, disorganized type, catatonic type, and undifferentiated type), schizophreniform disorder, schizoaffective disorder, delusional disorder, positive symptoms of schizophrenia, negative symptoms of schizophrenia at a daily dose of 3 mg, 2.70 mg, 2.50 mg, 2.25 mg, 2 mg, 1.75 mg, 1.50 mg, 1.25 mg, 1 mg, 0.7, 0.5, 0.3 mg or even 0.1 mg. The compound can be used to improve one or more aspects of cognition, e.g., one or more of: executive function, memory (e.g., working memory), social cognition, visual learning, verbal learning and speed of processing. […]

The values below come from patent US20140155429A1, “Treatment of Cognitive Disorders with Certain Alpha-7 Nicotinic Acid Receptor Agonists in Combination with Nicotine” (EnVivo Pharmaceuticals, Inc., priority 2011, published 2014).

For the compound `Cl.O=C(N[C@H]1CN2CCC1CC2)c1cc2cccc(Cl)c2s1` [(R)-7-chloro-N-(quinuclidin-3-yl)benzo[b]thiophene-2-carboxamide hydrochloride], the “sensory electrophysiological responses which correlate with improved cognitive and functional performance” value with schizophrenia subjects is recorded as “can improve sensory electrophysiological responses”.

Regarding `O=C(N[C@H]1CN2CCC1CC2)c1cc2cccc(Cl)c2s1` [(R)-7-chloro-N-(quinuclidin-3-yl)benzo[b]thiophene-2-carboxamide], the memory result in assay [1] is recorded as “memory can be improved”. Also, the procognitive effects entry with humans is “can have procognitive effects in humans at unexpectedly low doses”.
